Test [1] has as its system HL-60 (promyelocytic leukemia). The experiment in a line: MTT reduction cytotoxicity assay, HL-60. It is filed as cell-based. To be noted: Homo sapiens, HL-60, MTT, 72 h incubation. The method, then:
(§1) The human tumor cell lines used were HL-60 (promyelocytic leukemia), MCF-7 (breast adenocarcinoma) and NCI-H292 (lung carcinoma). The cells were obtained from Rio de Janeiro Cell Bank (RJ, Brazil). Cancer cells were maintained in RPMI 1640 medium or DMEN supplemented with 10% fetal bovine serum, 2 mM glutamine, 100 U/mL penicillin, 100 μg/mL streptomycin at 37° C. with 5% CO2. Cytotoxicity of (6R)-6-[(2Z)-pent-2-enyl]-5,6-dihydro-2H-pyran-2-one [(R)-(−)-Tuberolactone] against the three tumor cell lines was assessed using the 3-(4,5-dimethyl-2-thiazolyl)-2,5-diphenyl-2H tetrazolium bromide (MTT) (Sigma Aldrich Co., St. Louis, Mo., USA) reduction assay. Tumor cells were plated in 96-well plates (10^5 cells/mL for adherent cells or 3×10^5 cells/mL for Leukemia). (6R)-6-[(2Z)-pent-2-enyl]-5,6-dihydro-2H-pyran-2-one [(R)-(−)-Tuberolactone] in DMSO (0.3-25 μg/mL) were added to each well and incubated for 72 h. Control groups received the same amount of DMSO. After 69 h of treatment, 25 μL of MTT (5 mg/mL) was added. Three hours later, the MTT formazan product was dissolved in 100 μL of DMSO. Absorbance was measured at 595 nm in plate spectrophotometer (Varioskan Flash, Thermo Scientific). […] IC50 values and their 95% confidence intervals for two different experiments were obtained by non linear regression using Graphpad Prism version 5.0 for Windows (GraphPad Software, San Diego, Calif., USA).
On the technique in general: Tetrazolium assays rely on reduction of a dye to a coloured formazan, in cell work by metabolically active cells.

A further test deals with B. cereus. The experiment in a line: Paper disk diffusion antibacterial test, B. cereus. It is filed as cell-based, Bacillus cereus. To be noted: gram-(+) strain, 24 h at 28° C. The method, then:
(§2) 235 mg alkaloids were extracted from 750 g leaves from the plant, Gaultheria procumbens (also called American wintergreen, teaberry, or boxberry). Fractionation of the crude extract was guided by antimicrobial activity against several gram-(+) and gram-(−) strains: Enterobacter aerogenes (Gram-negative rods), Bacillus cereus (Gram-positive rods), and Sarcina lutea (Gram-positive […]), using the paper disk diffusion method (Barry, A. L.; Thornsbery, C. Identification for Clinical Microbiology, 4th ed.; Washington, D.C., 1985; p 978) supplied within the Science Kit & Boreal Laboratories Antibiotic Effects Kit. The SK Antibiotics Effect Kit uses “Easygel” instead of agar dishes. Each paper disk (6 mm) containing approximately 100 μg of the extract was placed directly onto an Easygel plate, which had been freshly inoculated with either a gram-(+) or (−) strain. In addition, a standard antibiotic disk (30 μg of either penicillin, tetracycline, or chloramphenicol supplied within Science Kit & Boreal Laboratories Antibiotic Effects Kit) as well as a blank disk (with only solvent) were placed on the freshly inoculated Easygel plate. […] 45 mg (6R)-6-[(2Z)-pent-2-enyl]-5,6-dihydro-2H-pyran-2-one [(R)-(−)-Tuberolactone] were isolated (MW. 166.0989 g/mol). […]
(In general: In agar diffusion tests the substance spreads into inoculated agar from a disc or well.)

The test system of another test is S. lutea. Nature of the test: Paper disk diffusion antibacterial test, S. lutea. The format is cell-based, Sarcina lutea. Particulars: gram-(+) strain, 24 h at 28° C. The method, then: as §2
The test system of test [2] is MCF-7 (breast adenocarcinoma). The experiment in a line: MTT reduction cytotoxicity assay, MCF-7. The format is cell-based. To be noted: Homo sapiens, MCF7, MCF-7, MTT, 72 h incubation. As to the method:
as §1

The test system of the next test is E. aerogenes. Nature of the test: Paper disk diffusion antibacterial test, E. aerogenes. The format is cell-based, Enterobacter aerogenes. Particulars: gram-(−) strain, 24 h at 28° C. As to the method: as §2
Test [3] concerns NCI-H292 (lung carcinoma). The experiment in a line: MTT reduction cytotoxicity assay, NCI-H292. The format is cell-based. To be noted: Homo sapiens, 72 h incubation. The method, then:
as §1

Results on two molecules are retold here after patent publication US10149830B2, “Pharmaceutical agents and methods relating thereto” (Cushing Academy, priority 2016, dated 2018).

Each structure is given as a SMILES string.

For orientation: IC50 means the concentration at which inhibition is half-maximal. In the case of `CC/C=C\C[C@@H]1CC=CC(=O)O1` [Tuberolactone, (6R)-6-[(2Z)-pent-2-enyl]-5,6-dihydro-2H-pyran-2-one], the IC50 came out at 4.4 µg/mL in test [1] (two experiments); 26 µM in test [1] (value in parentheses); 6.4 µg/mL in test [2] (two experiments); 38.5 µM in test [2] (value in parentheses); 5.9 µg/mL in test [3] (two experiments); 35.5 µM in test [3] (value in parentheses). For the same molecule, the “antibacterial activity against B. cereus” value in the test on B. cereus is listed as “confirmed”. The “antibacterial activity against S. lutea” value in the test with S. lutea is given as “confirmed”. For the same molecule, in the test with E. aerogenes, the “antibacterial activity against E. aerogenes” value was “confirmed”.
Turning to `COc1cccc2c1C(=O)c1c(O)c3c(c(O)c1C2=O)C[C@@](O)(C(=O)CO)C[C@@H]3O[C@H]1C[C@H](N)[C@H](O)[C@H](C)O1` [Doxorubicin, reference compound], the IC50 in test [1] (two experiments) stood at 0.02 µg/mL; in test [3] (two experiments), 0.2 µg/mL; in test [3] (value in parentheses), 0.36 µM.
